Converted amounts (≈) assume the structure as drawn. Peptide text beside a SMILES is read from it.
Legend:
Bacillus subtilis [1] = test: Antimicrobial activity against Bacillus subtilis assessed as reduction in microbial growth measured after 18 to 20 hrs by Mueller-Hinton broth based two-fold serial dilution method; format: functional; details: time 18-20 hrs
Staphylococcus aureus [2] = test: Antibacterial activity against Staphylococcus aureus ATCC 29213 assessed as bacterial growth inhibition measured for 18 hrs by CLSI-protocol based Mueller-Hinton Broth micro-dilution assay; format: functional
Erythrocyte = test: Hemolytic activity in sheep RBC incubated for 30 mins; format: toxicity, cell-based, Ovis aries; details: 0.5 h
Pseudomonas aeruginosa [3] = test: Antibacterial activity against Pseudomonas aeruginosa assessed as reduction in bacterial growth incubated for 20 hrs by broth microdilution assay; format: functional
Escherichia coli [4] = test: Antibacterial activity against Escherichia coli K12 assessed as bacterial growth inhibition measured for 18 hrs by CLSI-protocol based Mueller-Hinton Broth micro-dilution assay; format: functional
[5] = Hemolytic activity against Red blood cells (unknown origin) incubated for 1 hr by spectrophotometric analysis; format: toxicity, cell-based, Erythrocyte
Escherichia coli [6] = test: Antibacterial activity against Escherichia coli ATCC 25922 assessed as reduction in bacterial growth measured after 24 hrs by Mueller-Hinton broth based two-fold serial dilution method; format: functional
Bacillus subtilis [7] = test: Antibacterial activity against Bacillus subtilis 168 assessed as bacterial growth inhibition measured for 18 hrs by CLSI-protocol based Mueller-Hinton Broth micro-dilution assay; format: functional
Escherichia coli [8] = test: Antibacterial activity against Escherichia coli MG1655 assessed as bacterial growth inhibition measured for 18 hrs by CLSI-protocol based Mueller-Hinton Broth micro-dilution assay; format: functional
Staphylococcus aureus [9] = test: Antibacterial activity against Staphylococcus aureus ATCC 25923 assessed as reduction in bacterial growth measured after 24 hrs by Mueller-Hinton broth based two-fold serial dilution method; format: functional
Pseudomonas aeruginosa [10] = test: Antibacterial activity against Pseudomonas aeruginosa ATCC 27853 assessed as bacterial growth inhibition measured for 18 hrs by CLSI-protocol based Mueller-Hinton Broth micro-dilution assay; format: functional
Bacillus subtilis [11] = test: Antibacterial activity against Bacillus subtilis assessed as reduction in bacterial growth incubated for 20 hrs by broth microdilution assay; format: functional
Escherichia coli [12] = test: Antibacterial activity against wild type Escherichia coli MG1655 assessed as reduction in bacterial growth incubated for 18 to 24 hrs by broth micro-dilution method; format: functional; details: time 18-24 hrs
Staphylococcus aureus [13] = test: Antibacterial activity against methicillin-resistant Staphylococcus aureus ATCC BAA1720 assessed as bacterial growth inhibition measured for 18 hrs by CLSI-protocol based Mueller-Hinton Broth micro-dilution assay; format: functional
Pseudomonas aeruginosa [14] = test: Antibacterial activity against Pseudomonas aeruginosa PAO1 assessed as bacterial growth inhibition measured for 18 hrs by CLSI-protocol based Mueller-Hinton Broth micro-dilution assay; format: functional
Salmonella typhimurium = test: Antibacterial activity against Salmonella enterica subsp. enterica serovar Typhimurium LT2 assessed as bacterial growth inhibition measured for 18 hrs by CLSI-protocol based Mueller-Hinton Broth micro-dilution assay; format: functional
Escherichia coli [15] = test: Antibacterial activity against Escherichia coli assessed as reduction in bacterial growth incubated for 20 hrs by broth microdilution assay; format: functional
Staphylococcus aureus [16] = test: Antibacterial activity against Staphylococcus aureus assessed as bacterial growth inhibition incubated for 20 hrs by broth microdilution assay; format: functional
Bacillus subtilis [17] = test: Antibacterial activity against Bacillus subtilis ATCC 23857 assessed as reduction in bacterial cell growth incubated for 24 hrs by broth micro-dilution analysis; format: functional
Escherichia coli [18] = test: Antibacterial activity against Escherichia coli DH5alpha assessed as bacterial growth inhibition; format: functional
Bacillus subtilis [19] = test: Antibacterial activity against Bacillus subtilis assessed as reduction in bacterial growth incubated for 24 hrs by broth microdilution assay; format: functional
[20] = Hemolytic activity in human RBC assessed as hemolysis measured after 24 hrs; format: toxicity, cell-based, Erythrocyte; details: red blood cells
[21] = tested on: Mycolicibacterium smegmatis; test: Antimycobacterial activity against Mycobacterium smegmatis mc2 155 assessed as reduction in bacterial cell growth by resazurin reduction method; format: functional
Staphylococcus aureus [22] = test: Antibacterial activity against methicillin-resistant Staphylococcus aureus ATCC 33591 assessed as reduction in bacterial growth incubated for 18 hrs by agar dilution method; format: functional
Enterococcus faecium [23] = test: Antibacterial activity against vancomycin resistant Enterococcus faecium ATCC 700221 assessed as inhibition of bacterial growth incubated for 48 hrs by CLSI-based broth microdilution assay; format: functional
Escherichia coli [24] = test: Antibacterial activity against Escherichia coli ATCC 25922 assessed as reduction in microbial growth incubated for 16 to 20 hrs by CLSI protocol based Muller Hinton broth assay; format: functional; details: time 16-20 hrs
Pseudomonas aeruginosa [25] = test: Antibacterial activity against Pseudomonas aeruginosa ATCC 27853 assessed as reduction in microbial growth incubated for 16 to 20 hrs by CLSI protocol based Muller Hinton broth assay; format: functional; details: time 16-20 hrs
[26] = Hemolytic activity in human red blood cells; format: toxicity, cell-based, Erythrocyte; details: red blood cells
Escherichia coli [27] = test: Antibacterial activity against Escherichia coli; format: functional
Staphylococcus aureus [28] = test: Antibacterial activity against Staphylococcus aureus; format: functional
Pseudomonas aeruginosa [29] = test: Antibacterial activity against Pseudomonas aeruginosa; format: functional
Enterococcus faecium [30] = test: Antibacterial activity against Enterococcus faecium; format: functional

With `CC.CC[C@H](C)[C@H](NC(=O)[C@H](CCCNC(=N)N)NC(=O)[C@H](CCCCN)NC(=O)[C@H](CC(C)C)NC(=O)[C@H](CC(C)C)NC(=O)CN)C(=O)N[C@@H](CCCCN)C(=O)N[C@H](C(=O)N[C@@H](CC(C)C)C(=O)N[C@@H](CC(C)C)C(N)=O)[C@@H](C)O` as the molecule, how does the MIC (Bacillus subtilis [1]) read?
Its MIC is 16 µM.

What about the MIC (Staphylococcus aureus [2]) of the same molecule?
Its MIC is no less than 64 µM.

What about the HC10 (Erythrocyte) of the same molecule?
The HC10 was greater than 64 µM.

What about the MIC (Pseudomonas aeruginosa [3]) of the same molecule?
The MIC was 32 µM.

And the MIC (Escherichia coli [4])?
Its MIC is 32 µM.

What about the HC50 at 1 h [5] of the same molecule?
Its HC50 at 1 h is greater than 400 µM.

What about the MIC (Escherichia coli [6]) of the same molecule?
The MIC was greater than 22.6 µM.

What about the MIC (Bacillus subtilis [7]) of the same molecule?
Its MIC is 16 µM.

What about the MIC (Escherichia coli [8]) of the same molecule?
The MIC was 32 µM.

What about the MIC (Staphylococcus aureus [9]) of the same molecule?
Its MIC is 11.3 µM.

What about the MIC (Pseudomonas aeruginosa [10]) of the same molecule?
Its MIC is 32 µM.

What about the MIC (Bacillus subtilis [11]) of the same molecule?
Its MIC is 32 µM.

And the MIC (Escherichia coli [12])?
The MIC was 32 µM.

What about the MIC (Staphylococcus aureus [13]) of the same molecule?
The MIC was no less than 64 µM.

What about the MIC (Pseudomonas aeruginosa [14]) of the same molecule?
The MIC was 16 µM.

And the MIC (Salmonella typhimurium)?
The MIC was 64 µM.

What about the MIC (Escherichia coli [15]) of the same molecule?
Its MIC is 64 µM.

What about the MIC (Staphylococcus aureus [16]) of the same molecule?
The MIC was 64 µM.

With `CC[C@H](C)[C@H](NC(=O)[C@H](CCCNC(=N)N)NC(=O)[C@H](CCCCN)NC(=O)[C@H](CC(C)C)NC(=O)[C@H](CC(C)C)NC(=O)CN)C(=O)N[C@@H](CCCCN)C(=O)N[C@H](C(=O)N[C@@H](CC(C)C)C(=O)N[C@@H](CC(C)C)C(N)=O)[C@@H](C)O` [ANOPLIN] as the molecule, how does the MIC (Bacillus subtilis [17]) read?
Its MIC is 43.4 µM (≈ 50.1 µg/mL).

What about the MIC (Escherichia coli [18]) of the same molecule?
Its MIC is 86.7 µM (≈ 100 µg/mL).

Which MIC (Bacillus subtilis [19]) does the source give for `CC[C@H](C)[C@H](NC(=O)[C@H](Cc1ccccc1)NC(=O)[C@H](CCCCN)NC(=O)[C@H](CC(C)C)NC(=O)[C@H](CC(C)C)NC(=O)CN)C(=O)N[C@@H](CCCCN)C(=O)N[C@@H](CCCCN)C(=O)N[C@@H](CC(C)C)C(=O)N[C@@H](CC(C)C)C(N)=O` (H-GLLKFIKKLL-NH2) here?
Its MIC is 25.6 µM (≈ 30 µg/mL).

What about the HC50 at 24 h [20] of the same molecule?
The HC50 at 24 h was 13.6 µM.

And the MIC [21]?
Its MIC is 12.8 µM (≈ 15 µg/mL).

What about the MIC (Staphylococcus aureus [22]) of the same molecule?
Its MIC is 9.5 µM (≈ 11.1 µg/mL).

And the MIC (Enterococcus faecium [23])?
Its MIC is 9.5 µM (≈ 11.1 µg/mL).

And the MIC (Escherichia coli [24])?
The MIC was 9.5 µM.

What about the MIC (Pseudomonas aeruginosa [25]) of the same molecule?
The MIC was 28.4 µM.

Which HC50 at 24 h [20] does the source give for `CC[C@H](C)[C@H](NC(=O)[C@H](CCCCN)NC(=O)[C@H](CCCCN)NC(=O)[C@H](CC(C)C)NC(=O)[C@H](CC(C)C)NC(=O)CN)C(=O)N[C@@H](CCCCN)C(=O)N[C@@H](CCCCN)C(=O)N[C@@H](CC(C)C)C(=O)N[C@@H](CC(C)C)C(N)=O` here?
Its HC50 at 24 h is greater than 500 µM.

And the HC50 [26]?
The HC50 was less than 500 µM.

What about the MIC (Escherichia coli [27]) of the same molecule?
The MIC was 25 µM (≈ 28.8 µg/mL).

And the MIC (Staphylococcus aureus [28])?
Its MIC is 256 µM (≈ 295 µg/mL).

What about the MIC (Pseudomonas aeruginosa [29]) of the same molecule?
Its MIC is 28.4 µM (≈ 32.7 µg/mL).

And the MIC (Enterococcus faecium [30])?
Its MIC is 56.9 µM (≈ 65.6 µg/mL).

— ChEMBL document CHEMBL5608163, “Structure modification of anoplin for fighting resistant bacteria” (Eur J Med Chem, 2024)
